For four molecules, Micronuclei and pH2AX results are on record in patent US20180238860A1, “INDIVIDUAL METHOD PREDICTIVE OF THE DNA-BREAKING GENOTOXIC EFFECTS OF CHEMICAL OR BIOCHEMICAL AGENTS” (priority 2015, published 2018).

Data set [1] deals with HMEC cells. As to the kind of experiment: Micronuclei per 100 cells 24 h after contacting, Table 4 lower part (HMEC). It counts as cell-based, human. The conditions noted are these: line cell blank (below Hasp). The procedure:
(§1) In one embodiment, on receipt, the tissue sample (typically the biopsy) is established in the form of an amplifiable cell line without a viral or chemical transformation agent according to an ancillary procedure well known to culture laboratories, as underlined by the publication of Elkind et al. “The radiobiology of cultured mammalian cell”, Gordon and Breach (1967). Once the number of cells is sufficient (typically after 1 to 3 weeks), the first experiments are carried out using the process according to the invention. A cell sample is prepared: The cells are inoculated on glass coverslips in Petri dishes. A portion of these coverslips are contaminated with metals or pesticides or any other DNA-breaking chemical or biochemical agent at different concentrations. A further portion is not contaminated; it represents the spontaneous state. During contamination, the cells remain in the culture incubator at 37° C.
(§2) the cells are fixed in 3% paraformaldehyde and 2% sucrose for 15 minutes at ambient temperature and permeabilized in 20 mM HEPES buffer solution (4-(2-hydroxyethyl)-1-piperazine ethane sulfonic acid) at pH 7.4, 50 mM NaCl, 3 mM MgCl2, 300 mM sucrose, 0.5% Triton X-100 (a non-ionic surfactant having the formula t-Oct-C6H4-(OCH2CH2)×OH where x=9-10, CAS No. 9002-93-1, supplied for example by Sigma Aldrich) for 3 minutes. The glass coverslips are then washed in phosphate buffer saline (known as the acronym PBS) before immunological staining. The incubation took place for 40 min at 37° C. in PBS supplemented with 2% bovine serum albumin (known as the acronym BSA or fraction V, supplied for example by Sigma Aldrich) and was followed by a wash with PBS. Anti-pH2AX primary antibodies are used at a concentration of 1:800. The incubations with anti-mouse FITC or anti-rabbit TRITC secondary antibodies (1:100, supplied by Sigma Aldrich) were performed at 37° C. in 2% BSA for 20 minutes. Glass coverslips were treated with Vectashield™ containing DAPI (4,6-Diamidino-2-phenylindole) to label the nucleus. Staining with DAPI also makes it possible, indirectly, to determine the number of cells in phase G1 (nuclei with homogenous DAPI staining), in phase S (nuclei with numerous pH2AX foci), in phase G2 (nuclei with heterogeneous DAPI staining) and metaphases (visible chromosomes).
Counterstaining with DAPI (a DNA marker known to those skilled in the art) makes it possible to locate the nucleus to situate the cytoplasmic or nuclear location to quantify the micronuclei, which are complementary cell markers to the data on the foci.
(§3) The tables hereinafter summarize the results of numerous experiments which were carried out as described in the “Detailed description” section above.
(§4) In tables 3 and 4, “pH2AX” corresponds to the mean number of nuclear foci obtained with the marker pH2AX, 24 hours after contacting the cell sample with the chemical agent at the concentration C (NpH2AX(24 h, C)), and where “Micronuclei” corresponds to the mean number of micronuclei observed per 100 cells 24 hours after contacting the cell sample with the chemical agent at the concentration C(NMN(24 h, C)).

Data set [2] concerns HMEC cells. As to the kind of experiment: pH2AX foci 24 h after contacting, Table 4 lower part (HMEC endothelial cells). It counts as cell-based, human. The conditions noted are these: line cell blank (below Hasp), 24 hours after contacting. The procedure:
as §1
For the contaminated cells, characteristics are acquired corresponding to the state after an incubation time with the DNA-breaking chemical or biochemical agent. Said characteristics are represented by foci corresponding to the marker pH2AX. The cells on glass coverslips are then fixed, lysed and hybridized. The following procedure, known per se (Bodgi et al, “A single formula to describe radiation-induced protein relocalization: towards a mathematical definition of individual radiosensitivity”, J Theor Biol. 21 p 333:135-45.2013):
as §2
The results are acquired using these coverslips on an immunofluorescence microscope (Olympus model for example). The reading may be direct (typically by counting the foci on at least 50 cells in G0/G1 for each point) or using dedicated image analysis software, or on an automated microscope; preferably the software or automated microscope methods are calibrated with manual determinations.
as §3, §4

`CC(=O)[O-].CC(=O)[O-].[Cd+2]` [Cd-acetate]: the figures for the Micronuclei in data set [1] (10 μM), in data set [1] (30 μM) and in data set [1] (100 μM) were 5 per 100 cells, 10 per 100 cells and 10 per 100 cells, respectively. In addition, the results for the pH2AX in data set [2] (10 μM), in data set [2] (30 μM) and in data set [2] (100 μM) were 5 foci, 5.5 foci and 7 foci, respectively.

As to `[Cl][Cu][Cl]` [CuCl2], the Micronuclei is on record as 4 per 100 cells in data set [1] (3 μM); 6.7 per 100 cells in data set [1] (10 μM); 5.3 per 100 cells in data set [1] (30 μM); 6.7 per 100 cells in data set [1] (100 μM); 7.3 per 100 cells in data set [1] (300 μM); 4 per 100 cells in data set [1] (1000 μM). Besides, the pH2AX in data set [2] (3 μM) was found to be 1.6 foci; in data set [2] (10 μM) it was 1.9 foci; in data set [2] (30 μM) it was 1.6 foci; in data set [2] (100 μM), 1.5 foci; in data set [2] (300 μM), 5.3 foci; in data set [2] (1000 μM), 21.4 foci.

Turning to `O=S(=O)([O-])[O-].[Cu+2]` [CuSO4], the Micronuclei in data set [1] (3 μM) is listed as 3 per 100 cells; in data set [1] (10 μM) it was 5 per 100 cells; in data set [1] (30 μM) it was 4.7 per 100 cells; in data set [1] (100 μM) it was 5.3 per 100 cells; in data set [1] (300 μM), 9.3 per 100 cells; in data set [1] (1000 μM), 4 per 100 cells. Further, the pH2AX in data set [2] (3 μM) worked out at 1.9 foci; in data set [2] (10 μM), 2.3 foci; in data set [2] (30 μM), 3.4 foci; in data set [2] (100 μM) it was 6.4 foci; in data set [2] (300 μM), 20.1 foci; in data set [2] (1000 μM), 30.2 foci.

For Cd-acetate-citrate, the pH2AX in data set [2] (10 μM) was determined as 1 foci; in data set [2] (30 μM) it was 4.75 foci; in data set [2] (100 μM), 7 foci.
